According to PMC8243516, “Inhibition of lysosomal phospholipase A2 predicts drug-induced phospholipidosis” (Journal of Lipid Research, 2021):
Where two headings read alike, the source gives them in different places.

How the values were obtained:
[1] = target: T1, recombinant mouse LPLA2 (PLA2G15) (Mus musculus, UniProt Q8VEB4); experiment: Transacylase activity of LPLA2 (1-O-acyl-N-acetylsphingosine synthase, cell-free liposome assay); format: biochemical; settings: read-out: LPLA2 IC50
T1 construct: purchased Proteos Inc. (Kalamazoo, MI)
T1 sequence (Q8VEB4 34-412): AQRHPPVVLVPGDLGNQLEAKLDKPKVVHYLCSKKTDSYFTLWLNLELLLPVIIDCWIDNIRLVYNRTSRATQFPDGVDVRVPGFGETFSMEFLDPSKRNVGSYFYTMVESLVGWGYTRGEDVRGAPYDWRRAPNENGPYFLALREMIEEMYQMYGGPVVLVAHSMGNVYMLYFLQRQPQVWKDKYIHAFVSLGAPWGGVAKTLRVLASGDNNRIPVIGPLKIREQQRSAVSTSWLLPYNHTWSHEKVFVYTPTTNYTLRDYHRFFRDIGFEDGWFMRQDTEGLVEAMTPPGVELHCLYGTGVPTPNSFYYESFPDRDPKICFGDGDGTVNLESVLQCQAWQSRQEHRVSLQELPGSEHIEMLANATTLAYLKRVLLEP

[2] = target: T2, LPLA2 (Mus musculus, UniProt Q8VEB4); experiment: LPLA2 thermal stability measurement (SYPRO Orange Tm); format: binding; settings: N=3 ± SD
T2 construct: purchased Proteos Inc. (Kalamazoo, MI)
T2 sequence (Q8VEB4 34-412): T1 sequence (Q8VEB4 34-412)

[3] = system: MDCK cells
[4] = system: phospholipidosis; settings: phospholipidosis reported in vitro; Refs of Table 1; cited from earlier work
[5] = system: phospholipidosis; settings: phospholipidosis reported in vivo, species codes; Refs of Table 1; cited from earlier work
[6] = ref Pubchem and chEMBL databases; cited from earlier work
[7] = system: MDCK cells; experiment: Screening phospholipidosis assay (LipidTOX Red / NucBlue Live fluorescence ratio); settings: LipidTOX Red to NucBlue Live fluorescence ratio, 24 h, 15 μM
[8] = 1-O-acyl N-acetylsphingosine synthase activity, pH 4.5, DOPC/sulfatide liposomes
[9] = LPLA2 dependent 1-O-acyl N-acetylsphingosine synthase activity

SMILES | IC50 [1, 8] | IC50 [1, 9] | (ΔTm)c-(ΔTm)d, difference in melting temperature of LPLA2 alone or in the presence of drug [2] | Ratio (15 μM) [3] | In Vitro PLD [4] | In Vivo PLD [5] | pKa (basic) [6] | Ratio (15 μM) [7]
Cc1ccc2c(Cl)cc(Cl)c(O)c2n1 [5,7 Dichloro-8-hydroxy-2-methyl quinolone] | 1180 µM | 1180 µM | 1.88 ± 0.9 °C | 0.29 | – | – | – | –
CC1(C)[C@@H](O)CC[C@]2(C)[C@H]3C(=O)C=C4[C@@H]5C[C@@](C)(C(=O)O)CC[C@]5(C)CC[C@@]4(C)[C@]3(C)CC[C@@H]12 [18 Beta-glycyrrhetinic acid] | – | 2430 µM | 1.88 ± 0.6 °C | 0.4 | – | – | – | –
CN(C)CCC=C1c2ccccc2CCc2ccccc21 [Amitriptyline, dimethyl(3-{tricyclo[9.4.0.0^3,^8]pentadeca-1(15),3,5,7,11,13-hexaen-2-ylidene}propyl)amine] | 14.7 µM | – | -0.5 ± 0.0 °C | – | Yes | R | – | –
CCN(CC)CCCC(C)Nc1ccnc2cc(Cl)ccc12 (centres unmarked) [Chloroquine, 7-chloro-N-[5-(diethylamino)pentan-2-yl]quinolin-4-amine] | 655 µM | – | – | – | Yes | H, R, D, M | – | –
CN(C)CCCN1c2ccccc2Sc2ccc(Cl)cc21 [Chlorpromazine, [3-(2-chloro-10H-phenothiazin-10-yl)propyl] dimethylamine] | 9.01 µM | – | -2.1 ± 0.2 °C | – | Yes | R, D | – | –
CN(C)CCCC1(c2ccc(F)cc2)OCc2cc(C#N)ccc21 (centres unmarked) [Citalopram, 1-[3-(dimethylamino)propyl]-1-(4-fluorophenyl)-1,3-dihydro-2-benzofuran-5-carbonitrile] | 19.5 µM | – | 0 °C | – | Yes | Yes | – | –
C[C@H]1[C@H]2CC[C@H]3[C@@H]4CC=C5C[C@@H](N(C)C)CC[C@]5(C)[C@H]4CC[C@]23CN1C [Conessin] | – | 31.3 µM | 0.20 ± 01 °C | 1.08 | – | – | – | –
CN(C)CCC=C1c2ccccc2C=Cc2ccccc21 [Cyclobenzaprine, dimethyl(3-{tricyclo[9.4.0.0^3,^8]pentadeca-1(15),3,5,7,9,11,13-heptaen-2-ylidene}propyl)amine] | 6.24 µM | – | – | – | Yes | Yes | – | –
CNCCCN1c2ccccc2CCc2ccccc21 [Desipramine, (3-{2-azatricyclo [9.4.0.0]pentadeca-1(15),3,5,7,11,13-hexaen-2-yl}propyl)(methyl)amine] | 25.7 µM | – | 1.60 ± 0.1 °C | – | Yes | R | – | –
CN(C)CCC=C1c2ccccc2COc2ccccc21 [Doxepin, dimethyl(3-{9-oxatricyclo[9.4.0.0ˆ[1]]pentadeca-1(15),3,5,7,11,13-hexaen-2-ylidene}propyl)amine] | – | – | – | – | Yes | Yes | 9.76 | –
CN(C)CCCN1c2ccccc2CCc2ccccc21 [Imipramine, (3-{2-azatricyclo[9.4.0.0^3,^8]pentadeca-1(15),3,5,7,11, 13-hexaen-2-yl}propyl)dimethylamine] | 27.6 µM | – | 0 °C | – | Yes | R | 9.2 | –
O=C(NC1CCN(CCc2c[nH]c3ccccc23)CC1)c1ccccc1 [Indoramin, N-{1-[2-(1H-indol-3-yl)ethyl]piperidin-4-yl} benzamide] | 124 µM | – | 1.08 ± 0.4 °C | – | Yes | R | 9.59 | –
OC1(c2ccc(Cl)c(C(F)(F)F)c2)CCN(CCCC(c2ccc(F)cc2)c2ccc(F)cc2)CC1 [Penfluridol, 1-[4,4-bis(4-fluorophenyl)butyl]-4-[4-chloro-3-(trifluoromethyl)phenyl]piperidin-4-ol] | 9.09 µM | – | 0.11 ± 0.0 °C | – | – | Yes | 8.96 | 0.55
C1CCC(C(CC2CCCCN2)C2CCCCC2)CC1 (centres unmarked) [Perhexiline, 2-(2,2-dicyclohexylethyl) piperidine] | 11.7 µM | – | -0.12 ± 0.0 °C | – | Yes | H,R,M | 10.58 | –
CN(C)CCCN1c2ccccc2Sc2ccccc21 [Promazine, dimethyl[3-(10H-phenothiazin-10-yl)propyl]amine] | 39 µM | – | -0.10 ± 0.0 °C | – | Yes | R | 9.2 | –
CC(CN1c2ccccc2Sc2ccccc21)N(C)C (centres unmarked) [Promethazine, dimethyl[1-(10H-phenothiazin-10-yl)propan-2-yl] amine] | 40.3 µM | – | 1.45 ± 0.5 °C | – | Yes | Yes | – | –
CCN(CC)CCCC(C)Nc1c2ccc(Cl)cc2nc2ccc(OC)cc12.Cl.Cl (centres unmarked) [Quinacrine, 6-chloro-9-(4-diethylamino-1-methylbutylamino)-2-methoxyacridine dihydrochloride] | – | – | – | – | Yes | R | – | –
CN[C@H]1CC[C@@H](c2ccc(Cl)c(Cl)c2)c2ccccc21 [Sertraline, (1S,4S)-4-(3,4-dichlorophenyl)-N-methyl-1,2,3,4-tetrahydronaphthalen-1-amine] | – | – | – | – | Yes | Yes | – | –
NC[C@H]1O[C@H](O[C@H]2[C@H](O)[C@@H](O[C@H]3O[C@H](CO)[C@@H](O)[C@H](N)[C@H]3O)[C@H](N)C[C@@H]2N)[C@H](N)C[C@@H]1O [Tobramycin, O-[3-amino-3-deoxy-α-D-glucopyranosyl-(1→6)]-O-[2,6-diamino-2,3,6-trideoxy-α-D-ribohexopyranosyl-(1→4)]-2-deoxy-D-streptamine] | 33 µM | – | 0.27 ± 0.1 °C | – | Yes | R,H | 9.8 | –
CCN(CC)CCOc1ccc(C(O)(Cc2ccc(Cl)cc2)c2ccc(C)cc2)cc1 (centres unmarked) [Triparanol, 1-(4-(2-diethylaminoethoxy)phenyl)-1-p-tolyl-2-(4-chlorophenyl)ethanol] | 7.8 µM | – | 0 °C | – | Yes | R, M, Ha | 13.44 | –
Clc1ccccc1CNC[C@H]1CC[C@H](CNCc2ccccc2Cl)CC1 [ay-9944, trans-1,4-bis(2-chlorobenzylaminomethyl) cyclohexane] | 116 µM | – | 0.58 ± 0.4 °C | – | Yes | R,Ra, M | 9.1 | –
